Experimental data published in ChEMBL document CHEMBL1629662, “Antimicrobial activity of prulifloxacin tested against a worldwide collection of gastroenteritis-producing pathogens, including those causing traveler's diarrhea” (2009).
In brackets after ≈: the same amount, converted by molar mass.

Assays:
Shigella sonnei [1] = test: Antibacterial activity against Shigella sonnei assessed as percent resistant isolates by broth microdilution method; type: functional; settings: pooled result: one value given for 4 cell lines, strains, targets or settings
Yersinia enterocolitica [2] = test: Antibacterial activity against Yersinia enterocolitica assessed as percent resistant isolates by broth microdilution method; type: functional
Campylobacter coli = test: Antibacterial activity against Campylobacter coli by broth microdilution method; type: functional
Vibrio parahaemolyticus [3] = test: Antibacterial activity against Vibrio parahaemolyticus assessed as percent susceptible isolates by broth microdilution method; type: functional
[4] = Antibacterial activity against Salmonella enterica serovar Heidelberg by broth microdilution method; type: functional, Salmonella enterica subsp. enterica serovar Heidelberg
Vibrio fluvialis [5] = test: Antibacterial activity against Vibrio fluvialis by broth microdilution method; type: functional
Aeromonas caviae [6] = test: Antibacterial activity against Aeromonas caviae by broth microdilution method; type: functional
Aeromonas caviae [7] = test: Antibacterial activity against Aeromonas caviae assessed as percent resistant isolates by broth microdilution method; type: functional
Vibrio fluvialis [8] = test: Antibacterial activity against Vibrio fluvialis assessed as percent susceptible isolates by broth microdilution method; type: functional
Vibrio cholerae [9] = test: Antibacterial activity against Vibrio cholerae assessed as percent susceptible isolates by broth microdilution method; type: functional
Aeromonas hydrophila [10] = test: Antibacterial activity against Aeromonas hydrophila assessed as percent susceptible isolates by broth microdilution method; type: functional
[11] = test system: Yersinia pseudotuberculosis; test: Antibacterial activity against Yersinia pseudotuberculosis by broth microdilution method; type: functional
Vibrio fluvialis [12] = test: Antibacterial activity against Vibrio fluvialis assessed as percent resistant isolates by broth microdilution method; type: functional
[13] = Antibacterial activity against Salmonella enterica serovar Virchow by broth microdilution method; type: functional, Salmonella enterica subsp. enterica serovar Virchow
Shigella boydii [14] = test: Antibacterial activity against Shigella boydii by broth microdilution method; type: functional
[15] = test system: Yersinia pseudotuberculosis; test: Antibacterial activity against Yersinia pseudotuberculosis assessed as percent susceptible isolates by broth microdilution method; type: functional
Salmonella typhimurium [16] = test: Antibacterial activity against Salmonella enterica serovar Typhimurium assessed as percent resistant isolates by broth microdilution method; type: functional, Salmonella enterica subsp. enterica serovar Typhimurium; settings: pooled result: one value given for 8 cell lines, strains, targets or settings
Shigella boydii [17] = test: Antibacterial activity against Shigella boydii assessed as percent susceptible isolates by broth microdilution method; type: functional; settings: pooled result: one value given for 3 cell lines, strains, targets or settings
Plesiomonas shigelloides [18] = test: Antibacterial activity against Plesiomonas shigelloides by broth microdilution method; type: functional
Vibrio sp. [19] = test: Antibacterial activity against Vibrio sp. assessed as percent resistant isolates by broth microdilution method; type: functional
Salmonella typhi = test: Antibacterial activity against Salmonella enterica serovar Typhi by broth microdilution method; type: functional, Salmonella enterica subsp. enterica serovar Typhi
Salmonella paratyphi = test: Antibacterial activity against Salmonella enterica serovar Paratyphi by broth microdilution method; type: functional, Salmonella enterica subsp. enterica serovar Paratyphi A
Plesiomonas shigelloides [20] = test: Antibacterial activity against Plesiomonas shigelloides assessed as percent susceptible isolates by broth microdilution method; type: functional
Vibrio sp. [21] = test: Antibacterial activity against Vibrio sp. by broth microdilution method; type: functional
Shigella sonnei [22] = test: Antibacterial activity against Shigella sonnei by broth microdilution method; type: functional
Aeromonas veronii [23] = test: Antibacterial activity against Aeromonas veronii assessed as percent susceptible isolates by broth microdilution method; type: functional
Salmonella enteritidis [24] = test: Antibacterial activity against Salmonella enterica serovar Enteritidis assessed as percent susceptible isolates by broth microdilution method; type: functional, Salmonella enterica subsp. enterica serovar Enteritidis; settings: pooled result: one value given for 5 cell lines, strains, targets or settings
Aeromonas sobria [25] = test: Antibacterial activity against Aeromonas sobria by broth microdilution method; type: functional
Salmonella typhimurium [26] = test: Antibacterial activity against Salmonella enterica serovar Typhimurium by broth microdilution method; type: functional, Salmonella enterica subsp. enterica serovar Typhimurium
Aeromonas sobria [27] = test: Antibacterial activity against Aeromonas sobria assessed as percent resistant isolates by broth microdilution method; type: functional
Shigella flexneri = test: Antibacterial activity against Shigella flexneri by broth microdilution method; type: functional
Escherichia coli [28] = test: Antibacterial activity against Escherichia coli assessed as percent susceptible isolates by broth microdilution method; type: functional
Aeromonas caviae [29] = test: Antibacterial activity against Aeromonas caviae assessed as percent susceptible isolates by broth microdilution method; type: functional
Aeromonas hydrophila [30] = test: Antibacterial activity against Aeromonas hydrophila assessed as percent resistant isolates by broth microdilution method; type: functional
[31] = Antibacterial activity against Salmonella enterica serovar Newport by broth microdilution method; type: functional, Salmonella enterica subsp. enterica serovar Newport
Aeromonas hydrophila [32] = test: Antibacterial activity against Aeromonas hydrophila by broth microdilution method; type: functional
Yersinia enterocolitica [33] = test: Antibacterial activity against Yersinia enterocolitica by broth microdilution method; type: functional
Vibrio vulnificus [34] = test: Antibacterial activity against Vibrio vulnificus by broth microdilution method; type: functional
Plesiomonas shigelloides [35] = test: Antibacterial activity against Plesiomonas shigelloides assessed as percent resistant isolates by broth microdilution method; type: functional
Vibrio parahaemolyticus [36] = test: Antibacterial activity against Vibrio parahaemolyticus by broth microdilution method; type: functional
Shigella dysenteriae = test: Antibacterial activity against Shigella dysenteriae by broth microdilution method; type: functional
Vibrio alginolyticus [37] = test: Antibacterial activity against Vibrio alginolyticus assessed as percent susceptible isolates by broth microdilution method; type: functional
Vibrio alginolyticus [38] = test: Antibacterial activity against Vibrio alginolyticus assessed as percent resistant isolates by broth microdilution method; type: functional
Campylobacter jejuni = test: Antibacterial activity against Campylobacter jejuni by broth microdilution method; type: functional
Aeromonas veronii [39] = test: Antibacterial activity against Aeromonas veronii by broth microdilution method; type: functional
Vibrio vulnificus [40] = test: Antibacterial activity against Vibrio vulnificus assessed as percent susceptible isolates by broth microdilution method; type: functional
Escherichia coli [41] = test: Antibacterial activity against Escherichia coli by broth microdilution method; type: functional
Salmonella enteritidis [42] = test: Antibacterial activity against Salmonella enterica serovar Enteritidis by broth microdilution method; type: functional, Salmonella enterica subsp. enterica serovar Enteritidis
Vibrio parahaemolyticus [43] = test: Antibacterial activity against Vibrio parahaemolyticus assessed as percent resistant isolates by broth microdilution method; type: functional
Yersinia enterocolitica [44] = test: Antibacterial activity against Yersinia enterocolitica assessed as percent susceptible isolates by broth microdilution method; type: functional
Aeromonas sobria [45] = test: Antibacterial activity against Aeromonas sobria assessed as percent susceptible isolates by broth microdilution method; type: functional
Vibrio cholerae [46] = test: Antibacterial activity against Vibrio cholerae by broth microdilution method; type: functional
Vibrio cholerae [47] = test: Antibacterial activity against Vibrio cholerae assessed as percent resistant isolates by broth microdilution method; type: functional
Aeromonas veronii [48] = test: Antibacterial activity against Aeromonas veronii assessed as percent resistant isolates by broth microdilution method; type: functional
Escherichia coli [49] = test: Antibacterial activity against Escherichia coli assessed as percent resistant isolates by broth microdilution method; type: functional
Vibrio vulnificus [50] = test: Antibacterial activity against Vibrio vulnificus assessed as percent resistant isolates by broth microdilution method; type: functional
Vibrio sp. [51] = test: Antibacterial activity against Vibrio sp. assessed as percent susceptible isolates by broth microdilution method; type: functional
Vibrio alginolyticus [52] = test: Antibacterial activity against Vibrio alginolyticus by broth microdilution method; type: functional

Compound: CC1(C)S[C@@H]2[C@H](NC(=O)[C@H](N)c3ccccc3)C(=O)N2[C@H]1C(=O)O [AMPICILLIN]
- Activity (Shigella sonnei [1]): 59.4%
- Activity (Yersinia enterocolitica [2]): 91.3%
- MIC50 (Campylobacter coli): 2 µg/mL (≈ 5.72 µM)
- MIC90 (Campylobacter coli): 32 µg/mL (≈ 91.6 µM)
- Activity (Vibrio parahaemolyticus [3]): 90%
- MIC90 [4]: > 256 µg/mL
- MIC50 (Vibrio fluvialis [5]): 2 µg/mL (≈ 5.72 µM)
- MIC90 (Vibrio fluvialis [5]): 8 µg/mL (≈ 22.9 µM)
- MIC50 (Aeromonas caviae [6]): > 256 µg/mL
- MIC90 (Aeromonas caviae [6]): > 256 µg/mL
- Activity (Aeromonas caviae [7]): 98%
- Activity (Vibrio fluvialis [8]): 90%
- Activity (Vibrio cholerae [9]): 90%
- Activity (Aeromonas hydrophila [10]): 1%
- MIC50 [11]: 32 µg/mL (≈ 91.6 µM)
- MIC90 [11]: 32 µg/mL (≈ 91.6 µM)
- Activity (Vibrio fluvialis [12]): 0%
- MIC90 [13]: > 256 µg/mL
- MIC50 (Shigella boydii [14]): 128 µg/mL (≈ 366 µM)
- MIC90 (Shigella boydii [14]): > 256 µg/mL
- Activity [15]: 6.5%
- Activity (Salmonella typhimurium [16]): 22.8%
- Activity (Shigella boydii [17]): 40.6%
- MIC (Plesiomonas shigelloides [18]): 64 µg/mL (≈ 183 µM)
- MIC50 (Plesiomonas shigelloides [18]): 64 µg/mL (≈ 183 µM)
- Activity (Vibrio sp. [19]): 0%
- MIC90 (Salmonella typhi): > 256 µg/mL
- MIC90 (Salmonella paratyphi): > 256 µg/mL
- Activity (Plesiomonas shigelloides [20]): 0%
- MIC50 (Vibrio sp. [21]): 2 µg/mL (≈ 5.72 µM)
- MIC90 (Vibrio sp. [21]): 8 µg/mL (≈ 22.9 µM)
- MIC50 (Shigella sonnei [22]): 128 µg/mL (≈ 366 µM)
- MIC90 (Shigella sonnei [22]): > 256 µg/mL
- Activity (Aeromonas veronii [23]): 1%
- Activity (Salmonella enteritidis [24]): 77.2%
- MIC50 (Aeromonas sobria [25]): > 256 µg/mL
- MIC90 (Aeromonas sobria [25]): > 256 µg/mL
- MIC50 (Salmonella typhimurium [26]): 1 µg/mL (≈ 2.86 µM)
- MIC90 (Salmonella typhimurium [26]): > 256 µg/mL
- Activity (Aeromonas sobria [27]): 98%
- MIC50 (Shigella flexneri): 128 µg/mL (≈ 366 µM)
- MIC90 (Shigella flexneri): > 256 µg/mL
- Activity (Escherichia coli [28]): 63%
- Activity (Aeromonas caviae [29]): 1%
- Activity (Aeromonas hydrophila [30]): 98%
- MIC90 [31]: > 256 µg/mL
- MIC50 (Aeromonas hydrophila [32]): > 256 µg/mL
- MIC90 (Aeromonas hydrophila [32]): > 256 µg/mL
- MIC50 (Yersinia enterocolitica [33]): 32 µg/mL (≈ 91.6 µM)
- MIC90 (Yersinia enterocolitica [33]): 32 µg/mL (≈ 91.6 µM)
- MIC50 (Vibrio vulnificus [34]): 2 µg/mL (≈ 5.72 µM)
- MIC90 (Vibrio vulnificus [34]): 8 µg/mL (≈ 22.9 µM)
- Activity (Plesiomonas shigelloides [35]): 100%
- MIC50 (Vibrio parahaemolyticus [36]): 2 µg/mL (≈ 5.72 µM)
- MIC90 (Vibrio parahaemolyticus [36]): 8 µg/mL (≈ 22.9 µM)
- MIC50 (Shigella dysenteriae): 128 µg/mL (≈ 366 µM)
- MIC90 (Shigella dysenteriae): > 256 µg/mL
- Activity (Vibrio alginolyticus [37]): 90%
- Activity (Vibrio alginolyticus [38]): 0%
- MIC50 (Campylobacter jejuni): 2 µg/mL (≈ 5.72 µM)
- MIC90 (Campylobacter jejuni): 32 µg/mL (≈ 91.6 µM)
- MIC50 (Aeromonas veronii [39]): > 256 µg/mL
- MIC90 (Aeromonas veronii [39]): > 256 µg/mL
- Activity (Vibrio vulnificus [40]): 90%
- MIC50 (Escherichia coli [41]): 2 µg/mL (≈ 5.72 µM)
- MIC90 (Escherichia coli [41]): > 256 µg/mL
- MIC50 (Salmonella enteritidis [42]): 1 µg/mL (≈ 2.86 µM)
- MIC90 (Salmonella enteritidis [42]): > 256 µg/mL
- Activity (Vibrio parahaemolyticus [43]): 0%
- Activity (Yersinia enterocolitica [44]): 6.5%
- Activity (Aeromonas sobria [45]): 1%
- MIC50 (Vibrio cholerae [46]): 2 µg/mL (≈ 5.72 µM)
- MIC90 (Vibrio cholerae [46]): 8 µg/mL (≈ 22.9 µM)
- Activity (Vibrio cholerae [47]): 0%
- Activity (Aeromonas veronii [48]): 98%
- Activity (Escherichia coli [49]): 37%
- Activity (Vibrio vulnificus [50]): 0%
- Activity (Vibrio sp. [51]): 90%
- MIC50 (Vibrio alginolyticus [52]): 2 µg/mL (≈ 5.72 µM)
- MIC90 (Vibrio alginolyticus [52]): 8 µg/mL (≈ 22.9 µM)
